# Assay results reported in ChEMBL document CHEMBL1152855, “Regioselective synthesis of dispiro[1H-indene-2,3'-pyrrolidine-2',3''-[3H]indole]-1,2''(1''H)-diones of potential anti-tumor properties” (2009).
# Assays:
# Format in all cases: functional
# Conditions in all cases: route intraperitoneal
# Rattus norvegicus [1] = experiment: Antiinflammatory activity against carrageenan-induced paw edema in Wister albino rat assessed as inhibition of edema at 50 mg/kg, ip administered 1 hr prior to carrageenan challenge measured after 3 hrs relative to control
# Rattus norvegicus [2] = experiment: Antiinflammatory activity against carrageenan-induced paw edema in Wister albino rat assessed as inhibition of edema at 50 mg/kg, ip administered 1 hr prior to carrageenan challenge measured after 4 hrs relative to indomethacin
# Rattus norvegicus [3] = experiment: Antiinflammatory activity against carrageenan-induced paw edema in Wister albino rat assessed as inhibition of edema at 50 mg/kg, ip administered 1 hr prior to carrageenan challenge measured after 4 hrs relative to control
# Rattus norvegicus [4] = experiment: Antiinflammatory activity against carrageenan-induced paw edema in Wister albino rat assessed as inhibition of edema at 50 mg/kg, ip administered 1 hr prior to carrageenan challenge measured after 2 hrs relative to control
# Rattus norvegicus [5] = experiment: Antiinflammatory activity against carrageenan-induced paw edema in Wister albino rat assessed as inhibition of edema at 50 mg/kg, ip administered 1 hr prior to carrageenan challenge measured after 1 hr relative to control
# Rattus norvegicus [6] = experiment: Antiinflammatory activity against carrageenan-induced paw edema in Wister albino rat assessed as inhibition of edema at 10 mg/kg, ip administered 1 hr prior to carrageenan challenge measured after 1 hr relative to control
# Rattus norvegicus [7] = experiment: Antiinflammatory activity against carrageenan-induced paw edema in Wister albino rat assessed as inhibition of edema at 10 mg/kg, ip administered 1 hr prior to carrageenan challenge measured after 4 hrs relative to control
# Rattus norvegicus [8] = experiment: Antiinflammatory activity against carrageenan-induced paw edema in Wister albino rat assessed as inhibition of edema at 10 mg/kg, ip administered 1 hr prior to carrageenan challenge measured after 3 hrs relative to control
# Rattus norvegicus [9] = experiment: Antiinflammatory activity against carrageenan-induced paw edema in Wister albino rat assessed as inhibition of edema at 10 mg/kg, ip administered 1 hr prior to carrageenan challenge measured after 2 hrs relative to control
SMILES,inhibition in vivo at 50 mg/kg (Rattus norvegicus [1]) [%],activity relative to indomethacin (Rattus norvegicus [2]) [%],inhibition in vivo at 50 mg/kg (Rattus norvegicus [3]) [%],inhibition in vivo at 50 mg/kg (Rattus norvegicus [4]) [%],inhibition in vivo at 50 mg/kg (Rattus norvegicus [5]) [%],inhibition in vivo at 10 mg/kg (Rattus norvegicus [6]) [%],inhibition in vivo at 10 mg/kg (Rattus norvegicus [7]) [%],inhibition in vivo at 10 mg/kg (Rattus norvegicus [8]) [%],inhibition in vivo at 10 mg/kg (Rattus norvegicus [9]) [%]
[3H]C([3H])([3H])N1C(=O)[C@@]2(c3ccccc31)N(C)C[C@@H](c1ccc(C)cc1)[C@@]21Cc2ccccc2C1=O,6.4,29,13.9,8,46.9,–,–,–,–
[3H]C([3H])([3H])N1C(=O)[C@@]2(c3ccccc31)N(C)C[C@@H](c1ccc(F)cc1)[C@@]21Cc2ccccc2C1=O,26.9,53,25.5,24.6,52.9,–,–,–,–
[3H]N1C(=O)[C@@]2(c3ccccc31)N(C)C[C@@H](c1ccc(C)cc1)[C@@]21Cc2ccccc2C1=O,27.4,35,17.1,23.8,56.4,–,–,–,–
[3H]N1C(=O)[C@@]2(c3ccccc31)N(C)C[C@@H](c1ccccc1)[C@@]21Cc2ccccc2C1=O,42.5,81,39.3,40,56,–,–,–,–
[3H]N1C(=O)[C@@]2(c3ccccc31)N(C)C[C@@H](c1ccco1)[C@@]21Cc2ccccc2C1=O,38.8,69,33.5,53.6,48.8,–,–,–,–
[3H]N1C(=O)[C@@]2(c3ccccc31)N(C)C[C@@H](c1ccc(F)cc1)[C@@]21Cc2ccccc2C1=O,21.1,45,21.8,21.2,40.6,–,–,–,–
COc1ccc2c(c1)c(CC(=O)O)c(C)n2C(=O)c1ccc(Cl)cc1 [INDOMETHACIN],–,–,–,–,–,51,48.5,48.3,45.6
[3H]C([3H])([3H])N1C(=O)[C@@]2(c3ccccc31)N(C)C[C@@H](c1ccco1)[C@@]21Cc2ccccc2C1=O,17.5,17,8.2,33.1,50.1,–,–,–,–
